Test results taken from patent US5958973A, “Polyhydroxy benzoic acid derivatives and their use as neuraminidase inhibitors” (Gilead Sciences, Inc., priority 1995, dated 1999).

Molecular target: neuraminidase
Type: biochemical
Conditions: in vitro enzyme inhibition; class symbols
Description: Compositions of the invention are screened for inhibitory activity against neuraminidase by any of the conventional techniques for evaluating enzyme activity. […] Useful in vitro screens have been described in detail and will not be elaborated here.

Row | Compound | IC50 [µM]
1 | N=C(N)Nc1cc(C(=O)O)ccc1NC(=O)C(F)(F)F [Compound 208] | 20 to 75
2 | CCc1cc(C(=O)O)cc(NC(=N)N)c1NC(C)=O [Compound 213] | 75 to 100
